Assay: Metabolic stability in minipig intestinal fluid, quantification of licofelone by HPLC/UV
Type: in vitro ADME, Gottingen SPF minipig
Conditions: diluted minipig intestinal fluid; result in words
Protocol: Metabolic Stability of NSAID in Minipig Intestinal Fluid—Quantification of Licofelone
Intestinal tissue/fluid and enterocyte samples were taken from a 10 month old, female Gottingen SPF minipig. The body weight was 21 kg. The minipig was fasted for approximately 28 hours before sampling of intestinal fluid/tissues and enterocytes. On the day of sampling, the minipig was weighed and anaesthetised. The animal was killed by exsanguination before the sampling of intestinal fluid. An intestinal segment was ligated at both ends before removal. The isolated tissue was placed in isotonic saline and opened by a longitudinal cut for sampling of intestinal fluid.
The intestinal tissue from each segment was transferred into a Centrifuge Tube, immersed in 10 ml 50mM phosphate buffer, pH 6.8 and frozen at −70° C.
b) Incubation Experiments with Minipig Intestinal Fluid (without FaSSIF) […]
A set of six reference solutions (solvent: 1 vol IF and 4 vol 2% bovine serum albumin in FaSSIF pH 6.5) with licofelone concentrations between 38.0 and 0.19 μg/ml and the solvent without licofelone were analysed in duplicate. The obtained concentration/peak area data pairs were subjected to linear regression analysis and the resulting calibration curve (r^2=0.9999) was used for quantification of licofelone in incubation experiments.

SMILES	release of licofelone compared with Examples bearing a hydroxy group or an MMF residue as R
CC1(C)Cc2c(-c3ccccc3)c(-c3ccc(Cl)cc3)c(CC(=O)OCCOC(=O)Cc3c(-c4ccc(Cl)cc4)c(-c4ccccc4)c4n3CC(C)(C)C4)n2C1 [Reference Example 5b, 2-[2-[2-(4-chlorophenyl)-6,6-di-methyl-1-phenyl-5,7-dihydropyrrolizin-3-yl]acetyl]oxyethyl-2-[2-(4-chloro-phenyl)-6,6-dimethyl-1-phenyl-5,7-dihydropyrrolizin-3-yl]acetate]	significantly lower
CC1(C)Cc2c(-c3ccccc3)c(-c3ccc(Cl)cc3)c(CC(=O)OCCOCCOCCOCCOC(=O)Cc3c(-c4ccc(Cl)cc4)c(-c4ccccc4)c4n3CC(C)(C)C4)n2C1 [Reference Example 4b, [2-(4-Chloro-phenyl)-6,6-dimethyl-1-phenyl-6,7-dihydro-5H-pyrrolizin-3-yl]acetic acid 2-{2-[2-(2-{2-[2-(4-chloro-phenyl)-6,6-dimethyl-1-phenyl-6,7-dihydro-5H-pyrrolizin-3-yl]-acetoxy}-ethoxy)-ethoxy]-ethoxy}-ethyl ester]	significantly lower

Reference: US20200239473A1, “NEW DERIVATIVES OF LICOFELONE” (priority 2015, published 2020)
